Experimental data published in patent publication US10420772B2, “Animal and human anti-trypanosomonal and anti-leishmania agents” (Celgene Corporation, priority 2016, dated 2019).

Key:
Format in all cases: cell-based
[1] = test system: IL3000 T. congolense (drug sensitive) strain; test: In vitro Alamar Blue 72 hrs drug sensitivity assay for T. congolense; conditions: Trypanosoma congolense, IL3000 T. congolense bloodstream form, read-out: T. congo Act.
Method in brief: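 Bloodstream-form IL3000 trypanosomes in HMI medium with 20% bovine serum were exposed to compound for 69 hrs at 34° C, 5% CO2. Resazurin was then added for 3 hrs and fluorescence read (ex 536/em 588 nm). IC50 came from 11-point sigmoidal curves over at least three independent runs.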

[2] = test system: STIB 806 K T. evansi (drug sensitive) strain; test: In vitro Alamar Blue 72 hrs drug sensitivity assay for T. evansi; conditions: STIB 806 K T. evansi bloodstream form, Alamar Blue, 72 hrs; read-out: T. evansi Act.
Experimental: In vitro Alamar Blue 72 hrs drug sensitivity assay for T. evansi. Compounds were tested in vitro for chemotherapeutic efficacy against the STIB 806 K T. evansi (drug sensitive) strain, using an Alamar Blue assay. Test compounds were prepared as 10 mg/mL DMSO stocks for each assay run. Compounds were assayed in at least three separate, independent test runs and an 11-point dilution curve was used to determine the IC50 values. Bloodstream form trypanosomes were incubated with test compounds for 69 hrs at 37° C. in a humidified atmosphere containing 5% CO2, supported in HMI media containing 15% horse serum. Thereafter, 10 μL of Resazurin dye (12.5 mg in 100 mL of phosphate buffered saline, Sigma-Aldrich, Buchs, Switzerland) were added for an additional 3 hrs. Plates were then read using a fluorescent plate reader (Spectramax, Gemini XS, Bucher Biotec, Basel, Switzerland) using an excitation wavelength of 536 nm and an emission wavelength of 588 nm. Data points were averaged to generate sigmoidal dose-response curves and IC50 values were determined using Softmax Pro 5.2 software.

[3] = test system: STIB 719/ILRAD 560 T. vivax (drug sensitive) strain; test: Ex vivo Alamar Blue 48 hrs drug sensitivity assay for T. vivax; conditions: Trypanosoma vivax, STIB719; STIB 719/ILRAD 560 T. vivax bloodstream form, ex vivo, Alamar Blue, 48 hrs; read-out: T. vivax Act.
Method in brief: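 Bloodstream-form trypanosomes taken from a parasitaemic mouse were exposed to compound for 45 h at 37°C, 5% CO2 in HMI medium with 20% bovine serum. Resazurin added for a further 3 h, fluorescence read at ex 536/em 588 nm. IC50 from 11-point sigmoidal curves, at least three independent runs.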

Measured: IC50

CC1(Nc2ncc3nc(Nc4cccc(C(F)(F)F)c4F)n([C@H]4CC[C@@H](CN)CC4)c3n2)CCOCC1 [A-46, 9-((1s,4s)-4-(aminomethyl)cyclohexyl)-N8-(2-fluoro-3-(trifluoromethyl)phenyl)-N2-(4-methyltetrahydro-2H-pyran-4-yl)-9H-purine-2,8-diamine]
< 150 nM: all assays above

CC1(Nc2ncc3nc(Nc4cc(F)cc(Cl)c4)n([C@H]4CC[C@@H](CN)CC4)c3n2)CCOCC1 [A-47, 9-((1s,4s)-4-(aminomethyl)cyclohexyl)-N8-(3-chloro-5-fluorophenyl)-N2-(4-methyltetrahydro-2H-pyran-4-yl)-9H-purine-2,8-diamine]
< 150 nM: all assays above

CC1(Nc2ncc3nc(Nc4cccc(Cl)c4F)n([C@H]4CC[C@@H](CN)CC4)c3n2)CCOCC1 [A-49, 9-((1s,4s)-4-(aminomethyl)cyclohexyl)-N8-(3-chloro-2-fluorophenyl)-N2-(4-methyltetrahydro-2H-pyran-4-yl)-9H-purine-2,8-diamine]
< 150 nM: all assays above
